Data set [1] in a line: Flux assay for cell permeability using Caco-2 cells. The settings on record: human, Caco-2.
Data set [2] relates to NCI-H292: human mucoepidermoid lung carcinoma cells. Nature of the data set: MTT assay, cytotoxicity of metabolites, NCI-H292. As to conditions: NCI-H292, 96 h, 96 h incubation. In kind it is cell-based. The protocol:
NCI-H292: human mucoepidermoid lung carcinoma cells, ATCC-CRL-1848, standard medium: RPMI 1640 (Biochrom; #FG1215, stab. glutamine)+10% FCS (Biochrom; #S0415).
(§1) The cells were cultivated according to the standard method using the growth media listed under C-1. The test is carried out by detaching the cells with a solution of Accutase in PBS (Biochrom AG #L2143), pelleting, resuspending in culture medium, counting and sowing into a 96-well culture plate with white bottom (Costar #3610) (NCI H292: 2500 cells/well in a total volume of 100 μl). The cells were then incubated in an incubator at 37° C. and 5% carbon dioxide. After 48 h, the medium was replaced. The metabolites in 10 μl of culture medium in concentrations from 10^−5M to 10^−13M were then pipetted to the cells (in triplicate), and the assay was then incubated in an incubator at 37° C. and 5% carbon dioxide. […] To this end, the MTT reagent was incubated with the cells for 4 h, followed by lysis of the cells overnight by addition of the detergent. The dye formed was detected at 570 nm (Infinite M1000 pro, Tecan). The measured data were used to calculate the IC50 of the growth inhibition using the DRC (dose response curve). The proliferation of cells which were not treated with test substance but were otherwise identically treated was defined as the 100% figure.

The subject of another data set is KPL4. Nature of the data set: MTT assay, cytotoxicity of metabolites, KPL4. The format is cell-based. The settings on record: KPL4, 96 h, 96 h incubation. On the procedure:
as §1
In general terms: Tetrazolium assays rely on reduction of a dye to a coloured formazan, in cell work by metabolically active cells.

The target of data set [3] is T1, motor domain of the human kinesin spindle protein KSP/Eg5 (Homo sapiens, UniProt P52732).
T1 construct: The motor domain of the human kinesin spindle protein KSP/Eg5; purchased tebu-bio/Cytoskeleton Inc 027EG01-XL
T1 sequence (P52732 18-359 limits assumed): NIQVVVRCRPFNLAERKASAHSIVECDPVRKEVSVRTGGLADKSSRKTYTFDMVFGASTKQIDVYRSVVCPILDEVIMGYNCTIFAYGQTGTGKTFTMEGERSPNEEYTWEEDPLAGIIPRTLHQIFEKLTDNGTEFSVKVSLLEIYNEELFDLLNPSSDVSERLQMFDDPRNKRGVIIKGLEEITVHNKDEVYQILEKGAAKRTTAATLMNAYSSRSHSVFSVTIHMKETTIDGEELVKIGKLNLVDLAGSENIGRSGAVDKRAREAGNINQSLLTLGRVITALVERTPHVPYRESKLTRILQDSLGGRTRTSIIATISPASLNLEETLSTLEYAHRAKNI
The data set is described as follows: Inhibition of the kinesin spindle protein, ATPase activity (malachite green). In kind it is biochemical. As to conditions: 10 nM KSP/Eg5 motor domain, microtubuli, ATP 500 μM, 2 h RT. On the procedure:
The motor domain of the human kinesin spindle protein KSP/Eg5 (tebu-bio/Cytoskeleton Inc, No. 027EG01-XL) was incubated in a concentration of 10 nM with microtubuli (bovine or porcine, tebu-bio/Cytoskeleton Inc) stabilized with 50 μg/ml taxol (Sigma No. T7191-5MG) for 5 min at RT in 15 mM PIPES, pH 6.8 (5 mM MgCl2 and 10 mM DTT, Sigma). […] Incubation was at RT for 2 h. ATPase activity was detected by detecting the inorganic phosphate formed using malachite green (Biomol). […] The positive controls used were monastrol (Sigma, M8515-1 mg) and ispinesib (AdooQ Bioscience A10486). The individual data of the dose-activity curve are eight-fold determinations. The IC50 values are means of two independent experiments.

The target of data set [4] is T2, human B7H3 (RnDSystems, 2318-B3-050/CF) (human, UniProt Q5ZPR3 29-461).
T2 construct: Bought antigen, detected with an anti-His HRP antibody, so a His tag is implied
T2 sequence (looked up): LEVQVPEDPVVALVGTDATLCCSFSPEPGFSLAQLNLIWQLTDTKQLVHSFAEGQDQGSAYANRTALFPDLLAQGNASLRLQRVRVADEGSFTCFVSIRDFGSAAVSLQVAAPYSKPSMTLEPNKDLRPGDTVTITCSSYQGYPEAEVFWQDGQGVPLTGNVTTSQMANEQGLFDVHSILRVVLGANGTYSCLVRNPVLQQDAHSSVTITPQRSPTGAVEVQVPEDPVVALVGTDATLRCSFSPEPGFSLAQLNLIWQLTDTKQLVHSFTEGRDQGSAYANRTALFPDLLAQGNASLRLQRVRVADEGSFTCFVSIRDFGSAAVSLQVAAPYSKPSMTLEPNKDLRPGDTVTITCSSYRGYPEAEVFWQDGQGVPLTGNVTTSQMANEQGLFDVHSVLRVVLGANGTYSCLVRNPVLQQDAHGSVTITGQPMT
Nature of the data set: ELISA; antibody captured on anti-human IgG Fc, antigen 37 ng/ml, anti-His HRP / Amplex Red. On the procedure:
TPP5706 was synthesized as described above. Binding of TPP5706 to human B7H3 and to human B7H2 and B7H4 was characterized using ELISAs. […] After washing once with PBS, 0.05% Tween, the plate was blocked with 100% Smart Block (Candor) for one hour at 37° C. The antibody to be tested (e.g. TPP5706 or one of its derivatives) was then attached to the plate (2 μg/ml IgG in PBS, 0.05% Tween, 10% Smart Block; 1 hour, room temperature). […] After washing three times, the plate was incubated with Amplex Red for 30 minutes and then read.

Take `CC(C)(C)[C@H](c1cc(-c2cc(F)ccc2F)cn1Cc1ccccc1)N(CC[C@H](N)C(=O)NCCNC(=O)CNC(=O)CC(SC[C@H](N)C(=O)O)C(=O)O)C(=O)CO` (mixture of isomers) [Example M26, 4-[(2-{[2-({(2S)-2-Amino-4-[{(1R)-1-[1-benzyl-4-(2,5-difluorophenyl)-1H-pyrrol-2-yl]-2,2-dimethylpropyl}(glycoloyl)amino]butanoyl}amino)ethyl]amino}-2-oxoethyl)amino]-2-{[(2R)-2-amino-2-carboxyethyl]sulphanyl}-4-oxobutanoic acid-trifluoroacetic acid (1:1)]: the Papp B→A (as a rule, the apparent permeability from the basolateral to the apical side of a cell layer) at 2 h in data set [1] was found to be 1.3 ×10⁻⁶ cm/s. The IC50 (as a rule, the concentration needed to halve the response being measured) in data set [2] came out at 63.8 nM. Take `CC(C)(C)[C@H](c1cc(-c2cc(F)ccc2F)cn1Cc1ccccc1)N(CC[C@H](N)C(=O)NCCNC(=O)CNC(=O)CC(SC[C@H](N)C(=O)O)C(=O)O)C(=O)CO` (single isomer, unassigned) [Example M14]: the IC50 in the data set with KPL4 was found to be 182 nM.

For `CC(C)(C)[C@H](c1cc(-c2cc(F)ccc2F)cn1Cc1ccccc1)N(CC[C@H](N)C(=O)NCCNC(=O)CNC(=O)C(CC(=O)O)SC[C@H](N)C(=O)O)C(=O)CO` (single isomer, unassigned) [Example M15], the IC50 with KPL4 amounted to 169 nM; in data set [2] it was 133 nM.

Regarding `CC(C)(C)[C@H](c1cc(-c2cc(F)ccc2F)cn1Cc1ccccc1)N(CC[C@H](N)C(=O)NCCOCCN1C(=O)CC(SC[C@H](N)C(=O)O)C1=O)C(=O)CO` (stereo partly drawn) [Example M4, S-(1-{2-[2-({(2S)-2-Amino-4-[{(1R)-1-[1-benzyl-4-(2,5-difluorophenyl)-1H-pyrrol-2-yl]-2,2-dimethylpropyl}(glycoloyl)amino]butanoyl}amino)ethoxy]ethyl}-2,5-dioxopyrrolidin-3-yl)-L-cysteine/trifluoroacetic acid (1:1)], the IC50 in the data set with KPL4 is 176 nM. The same measure, in the same setting: under `CC(C)(C)[C@H](c1cc(-c2cc(F)ccc2F)cn1Cc1ccccc1)N(CC[C@H](N)C(=O)NCCNC(=O)CSC[C@H](N)C(=O)O)C(=O)CO` [Example M7, S-(2-{[2-({(2S)-2-Amino-4-[{(1R)-1-[1-benzyl-4-(2,5-difluorophenyl)-1H-pyrrol-2-yl]-2,2-dimethylpropyl}(glycoloyl)amino]butanoyl}amino)ethyl]amino}-2-oxoethyl)-L-cysteine/trifluoroacetic acid (1:1)] stands 92.5 nM. For the molecule `CC(C)(C)[C@H](c1cc(-c2cc(F)ccc2F)cn1Cc1ccccc1)N(CCCN)C(=O)CO` [Example M9, N-(3-Aminopropyl)-N-{(1R)-1-[1-benzyl-4-(2,5-difluorophenyl)-1H-pyrrol-2-yl]-2,2-dimethylpropyl}-2-hydroxyacetamide], the IC50 in data set [3] is 1.07 nM. As to `CC(C)(C)[C@H](c1cc(-c2cc(F)ccc2F)cn1Cc1ccccc1)N(CC[C@H](N)C(=O)NCCNC(=O)CNC(=O)CC(SC[C@H](N)C(=O)O)C(=O)O)C(=O)CO` (stereo partly drawn) [Example M13, 4-[(2-{[2-({(2S)-2-Amino-4-[{(1R)-1-[1-benzyl-4-(2,5-difluorophenyl)-1H-pyrrol-2-yl]-2,2-dimethylpropyl}(glycoloyl)amino]butanoyl}amino)ethyl]amino}-2-oxoethyl)amino]-2-{[(2R)-2-amino-2-carboxyethyl]sulphanyl}-4-oxobutanoic acid/trifluoroacetic acid (1:1)], the IC50 in the data set with KPL4 is 169 nM. On to `CC(C)(C)[C@H](c1cc(-c2cc(F)ccc2F)cn1Cc1ccccc1)N(CCCN)C(=O)CSC[C@H](NC(=O)CCOCCOCCOCCOCCNC(=O)CNC(=O)C(CC(=O)O)SC[C@H](N)C(=O)O)C(=O)O` (stereo partly drawn) [Example M21, (2R,24S,27R)-27-Amino-2-[({2-[(3-aminopropyl) {(1R)-1-[1-benzyl-4-(2,5-difluorophenyl)-1H-pyrrol-2-yl]-2,2-dimethylpropyl}amino]-2-oxoethyl}sulphanyl)methyl]-24-(carboxymethyl)-4,20,23-trioxo-7,10,13,16-tetraoxa-25-thia-3,19,22-triazaoctacosane-1,28-dioic acid/trifluoroacetic acid (1:2)], for which, in data set [3], the IC50 stood at 2.31 nM. Take `CC(C)(C)[C@H](c1cc(-c2cc(F)ccc2F)cn1Cc1ccccc1)N(CC[C@H](N)C(=O)NCCC(=O)N[C@@H](CCC(=O)O)C(=O)O)C(=O)CO` [Example M23, N-{(2S)-2-Amino-4-[{(1R)-1-[1-benzyl-4-(2,5-difluorophenyl)-1H-pyrrol-2-yl]-2,2-dimethylpropyl}(glycoloyl)amino]butanoyl}-beta-alanyl-L-glutamic acid-trifluoroacetic acid (1:1)]: the IC50 (in the data set with KPL4; in data set [2]) was 500 nM each time. Turning to `CC(C)(C)[C@H](c1cc(-c2cc(F)ccc2F)cn1Cc1ccccc1)N(CC[C@H](N)C(=O)NCCC(=O)N[C@H](CCC(=O)O)C(=O)O)C(=O)CO` [Example M24, N-{(2S)-2-Amino-4-[{(1R)-1-[1-benzyl-4-(2,5-difluorophenyl)-1H-pyrrol-2-yl]-2,2-dimethylpropyl}(glycoloyl)amino]butanoyl}-beta-alanyl-D-glutamic acid-trifluoroacetic acid (1:1)], the IC50 was 500 nM with KPL4 and 167 nM in data set [2]. For the molecule `CC(C)(C)[C@H](c1cc(-c2cc(F)ccc2F)cn1Cc1ccccc1)N(CC[C@H](N)C(=O)NCCNC(=O)CNC(=O)C(CC(=O)O)SC[C@H](N)C(=O)O)C(=O)CO` (stereo partly drawn) [Example M27, 4-[(2-{[2-({(2S)-2-Amino-4-[{(1R)-1-[1-benzyl-4-(2,5-difluorophenyl)-1H-pyrrol-2-yl]-2,2-dimethylpropyl}(glycoloyl)amino]butanoyl}amino)ethyl]amino}-2-oxoethyl)amino]-3-{[(2R)-2-amino-2-carboxyethyl]sulphanyl}-4-oxobutanoic acid-trifluoroacetic acid (1:1)], the concentration for half-maximal inhibition (IC50) in data set [2] is 276 nM.

B1: TPP-3803 (antibody, human IgG1, kappa, V domains shown)
VH: QVKLQQSGAELVKPGASVKLSCKASGYTFTNYDINWVRQRPEQGLEWIGWIFPGDGSTQYNEKFKGKATLTTDTSSSTAYMQLSRLTSEDSAVYFCARQTTATWFAYWGQGTTVTVSS
VL: DIELTQSPTTLSVTPGDRVSLSCRASQSISDYLHWYQQKSHESPRLLIKYASQSISGIPSRFSGSGSGSDFTLSINSVEPEDVGVYYCQNGHSFPLTFGAGTKLELKR
notes: also called anti-B7H3 AK1A
B1: the “Quotient signal (B7)/signal (buffer)” value in data set [4] was 51.

For the origin of these results see US20180185510A1, “ANTIBODY DRUG CONJUGATES OF KINESIN SPINDEL PROTEIN (KSP) INHIBITORS WITH ANTI-B7H3-ANTIBODIES” (BAYER PHARMA AKTIENGESELLSCHAFT, priority 2015, published 2018).
